Test results reported in patent publication US6355649B1, “Method of treating seborrhea with 5-α reductase inhibitors” (priority 1993, dated 2002).

Columns and labels:
[1] = test system: DHT content in scalp tissue; assay: DHT content in scalp tissue after oral finasteride in men with male pattern baldness; format: in vivo; settings: orally for 6 weeks, 0.2 mg/day, 1.0 mg/day and 5.0 mgs/day
Method: In another test, finasteride was orally administered for 6 weeks to men with male pattern baldness at doses of 0.2 mg/day, 1.0 mg/day and 5.0 mgs/day.

[2] = test system: hair growth (androgenic alopecia); assay: Macrophotography and global photography procedure for detection of hair growth; format: in vivo, patients; settings: dosages below 5 mg/day per patient, for example 1 mg/day or 0.2 mg/day; "it can be shown"
Method: Location: ID card Haircount target area
In these clinical photographs, the only variable allowed is the haircount. Film emulsion, lighting, framing, exposure, and reproduction ratios are held constant.
1. The haircount area on the patient is prepared as follows: A small (˜1 mm) dot tattoo is placed at the beginning of the study at the leading edge of the bald area directly anterior to the center of the vertex bald spot, using a commercial tattooing machine or manually (needle and ink). An area approximately one square inch in size, centered at the tattoo at the leading edge of the balding area, is clipped short (˜2 mm). Cut hairs are removed from the area to be photographed, using tape. Compressed air and/or ethanol wipes may also be used to facilitate removal of cut hairs.
2. […]
A trained technician places a transparency over the photographic print and, using a felt tip pen, places a black dot over each visible hair. The dot map transparency is then counted using image analysis with computer assistance.
Photographs are coded with a random number corresponding to study site, visit number and patient allocation number to insure blinding to time. At Month 6, baseline and Month 6 photographs are counted and data analyzed for interim analysis. At Month 12, baseline, Month 6 and Month 12 photographs are counted and data analyzed for the primary endpoint. […]

[3] = Solubility of finasteride polymorphic crystal forms; format: physicochemical; settings: 25° C.
Method: Finasteride Form I can be prepared by dissolving finasteride in glacial acetic acid (ca. 100 mg/ml) and adding water with stirring until the weight % of water equals or exceeds 84%. The resulting solid phase is collected by filtration and dried under vacuum and at about 50° C. […] The x-ray powder diffraction pattern is characterized by d-spacings of 6.44, 5.69, 5.36, 4.89, 4.55, 4.31, 3.85, 3.59 and 3.14. […] The solubilities in water and cyclohexane at 25° C. are 0.05+0.02 and 0.27+0.05 mg/gm respectively. In addition, Form I of finasteride can be prepared by recrystallization from dry (H2O<1 mg/ml) ethyl acetate and isopropyl acetate. The isolated solids are dried under vacuum at about 50° C. and have the same physical characterization data as given above.
Form II of finasteride can be prepared by dissolving finasteride in glacial acetic acid (ca. 100 mg/ml) and adding water with stirring until the weight % of water equals about 75% but not in excess of 80%. The resulting solid phase is collected by filtration and dried under vacuum and at about 100° C. […] The x-ray powder diffraction pattern is characterized by d-spacings of 14.09, 10.36, 7.92, 7.18, 6.40, 5.93, 5.66, 5.31, 4.68, 3.90, 3.60 and 3.25. […] The solubilities in water and cyclohexane at 25° C. are 0.16+0.02 and 0.42+0.05 mg/gm respectively. In addition, Form II of finasteride can be prepared by recrystallization from ethyl acetate containing between 2 to 30 mg/ml of water and isopropyl acetate containing between 2 to 15 mg/ml of water. The isolated solids are dried under vacuum at about 80° C. and have the same physical characterization data as given above. Form II can also be prepared by heating Form I up to about 150° C., holding for about one hour and cooling back to room temperature. The Form II prepared in this manner has the same physical characterization data as given above.

| Compound | DHT content in scalp tissue [1] | hair growth / treatment of androgenic alopecia [2] | solubility in cyclohexane [3] [mg/gm] | solubility in water [3] [mg/gm] |
| --- | --- | --- | --- | --- |
| CC(C)(C)NC(=O)[C@H]1CC[C@H]2[C@@H]3CC[C@H]4NC(=O)C=C[C@]4(C)[C@H]3CC[C@]12C [finasteride, 17β-(N-tert-butylcarbamoyl)-4-aza-5α-androst-1-ene-3-one] | significant reduction | promote hair growth | – | – |
| CC(C)(C)NC(=O)[C@H]1CCC2C3CCC4NC(=O)C=C[C@]4(C)C3CC[C@@]21C (stereo partly drawn) [Form I, 17β-(N-tert-butylcarbamoyl)-4-aza-5α-androst-1-ene-3-one] | – | – | 0.27 ± 0.05 | 0.05 ± 0.02 |
| CC(C)(C)NC(=O)[C@H]1CCC2C3CCC4NC(=O)C=C[C@]4(C)C3CC[C@@]21C (stereo partly drawn) [Form II, 17β-(N-tert-butylcarbamoyl)-4-aza-5α-androst-1-ene-3-one] | – | – | 0.42 ± 0.05 | 0.16 ± 0.02 |
